Results: paper PMC3385512 (Science Translational Medicine, 2012)

Tests used:
[1] = target: Ba/F3 cells expressing wild-type EML4-ALK (Homo sapiens, UniProt Q9HC35+Q9UM73); experiment: Ba/F3 cell survival assay; format: cell-based; conditions: without IL-3
[2] = target: T1, Ba/F3 cells expressing EML4-ALK G1202R (Homo sapiens, UniProt Q9HC35+Q9UM73, G1202R); experiment: Ba/F3 cell survival assay; format: cell-based
T1 sequence (Q9HC35+Q9UM73 with tags, fused parts or gaps Q9UM73:G1202R): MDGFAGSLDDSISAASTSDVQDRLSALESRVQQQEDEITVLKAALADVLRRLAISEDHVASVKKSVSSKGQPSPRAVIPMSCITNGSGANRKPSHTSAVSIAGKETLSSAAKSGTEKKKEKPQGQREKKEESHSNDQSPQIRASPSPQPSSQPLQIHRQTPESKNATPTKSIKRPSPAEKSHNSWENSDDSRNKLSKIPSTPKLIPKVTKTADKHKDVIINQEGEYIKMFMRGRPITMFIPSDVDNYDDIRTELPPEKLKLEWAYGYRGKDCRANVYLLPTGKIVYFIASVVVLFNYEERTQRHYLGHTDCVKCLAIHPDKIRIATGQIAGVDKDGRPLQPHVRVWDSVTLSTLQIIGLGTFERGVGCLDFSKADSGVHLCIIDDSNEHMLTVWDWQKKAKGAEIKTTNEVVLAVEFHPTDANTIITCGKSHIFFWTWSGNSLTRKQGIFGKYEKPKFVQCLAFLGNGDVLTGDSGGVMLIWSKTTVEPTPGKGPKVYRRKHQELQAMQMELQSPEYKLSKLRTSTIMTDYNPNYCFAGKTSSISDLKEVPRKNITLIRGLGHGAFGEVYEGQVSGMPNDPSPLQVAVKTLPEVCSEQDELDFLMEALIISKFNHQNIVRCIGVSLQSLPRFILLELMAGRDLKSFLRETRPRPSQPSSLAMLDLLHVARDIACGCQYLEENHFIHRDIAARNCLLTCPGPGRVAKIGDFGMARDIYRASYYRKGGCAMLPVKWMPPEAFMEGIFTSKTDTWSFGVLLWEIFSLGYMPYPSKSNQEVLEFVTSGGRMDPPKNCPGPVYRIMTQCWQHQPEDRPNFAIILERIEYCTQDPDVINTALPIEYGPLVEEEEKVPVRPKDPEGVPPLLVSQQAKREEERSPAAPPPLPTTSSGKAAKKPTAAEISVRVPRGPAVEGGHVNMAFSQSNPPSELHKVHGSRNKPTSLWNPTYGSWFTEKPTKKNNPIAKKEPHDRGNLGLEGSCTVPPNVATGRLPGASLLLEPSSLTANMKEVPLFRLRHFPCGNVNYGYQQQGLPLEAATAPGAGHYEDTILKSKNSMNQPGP

[3] = target: ALK (V1058-P1620) wild type (Homo sapiens, UniProt Q9UM73); experiment: in vitro kinase assay; format: biochemical; conditions: in vitro kinase assay data, tables S1 and S2
Chain of ALK (V1058-P1620) wild type (Q9UM73 1058-1620): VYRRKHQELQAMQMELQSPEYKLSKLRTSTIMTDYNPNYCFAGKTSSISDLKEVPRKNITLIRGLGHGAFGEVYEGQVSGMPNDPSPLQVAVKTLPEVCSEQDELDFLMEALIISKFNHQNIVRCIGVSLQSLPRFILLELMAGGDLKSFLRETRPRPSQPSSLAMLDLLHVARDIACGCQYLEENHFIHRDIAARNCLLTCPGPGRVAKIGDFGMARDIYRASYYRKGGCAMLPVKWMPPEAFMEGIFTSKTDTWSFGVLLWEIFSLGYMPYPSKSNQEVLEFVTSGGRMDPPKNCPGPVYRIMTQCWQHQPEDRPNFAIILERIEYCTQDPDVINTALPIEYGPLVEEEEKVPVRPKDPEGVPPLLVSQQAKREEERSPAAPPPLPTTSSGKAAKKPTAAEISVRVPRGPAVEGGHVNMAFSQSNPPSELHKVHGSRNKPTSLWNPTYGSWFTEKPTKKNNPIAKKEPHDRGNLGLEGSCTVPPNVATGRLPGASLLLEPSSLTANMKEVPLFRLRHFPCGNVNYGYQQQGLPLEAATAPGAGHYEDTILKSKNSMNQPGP

[4] = target: Ba/F3 cells expressing EML4-ALK L1196M (Homo sapiens, UniProt Q9HC35+Q9UM73, L1196M); experiment: Ba/F3 cell survival assay; format: cell-based; conditions: without IL-3
[5] = target: T2, Ba/F3 cells expressing EML4-ALK S1206Y (Homo sapiens, UniProt Q9HC35+Q9UM73, S1206Y); experiment: Ba/F3 cell survival assay; format: cell-based; conditions: without IL-3
T2 sequence (Q9HC35+Q9UM73 with tags, fused parts or gaps Q9UM73:S1206Y): T1 sequence (Q9HC35+Q9UM73 with tags, fused parts or gaps Q9UM73:G1202R) with R641G, S645Y

[6] = target: Ba/F3 cells expressing EML4-ALK 1151Tins (Homo sapiens, UniProt Q9HC35+Q9UM73, DUP1151-1151); experiment: Ba/F3 cell survival assay; format: cell-based; conditions: Ba/F3 EML4-ALK 1151Tins, without IL-3
[7] = system: parental, IL-3-dependent Ba/F3 cells; experiment: Ba/F3 cell survival assay; format: cell-based, murine; conditions: parental Ba/F3 cells cultured with IL-3 (off-target toxicity control)
[8] = system: phosphorylation of EML4-ALK; experiment: phospho-ALK immunoblotting in Ba/F3 cells; format: cell-based; conditions: all Ba/F3 lines expressing wild-type or mutant EML4-ALK
H3122 CR2 cells = experiment: cell survival assay; format: cell-based
H3122 CR3 cells [9] = experiment: cell survival assay; format: cell-based; conditions: for sensitivity in cell survival assay: H3122 CR3 (no ALK mutation, EGFR activation), gefitinib 2 μM in combination
[10] = system: KIT-overexpressing H3122 cells; conditions: imatinib 1 μM with crizotinib 1 μM and SCF 100 ng/ml
H3122 CR3 cells [11] = conditions: H3122 CR3, 1 μM crizotinib, 2 μM gefitinib or the combination, 72 hours
H3122 cells [12] = experiment: cell survival assay; format: cell-based; conditions: parental H3122 cells (EML4-ALK variant 1)
H3122 cells [13] = experiment: apoptosis assay; format: cell-based; conditions: parental H3122, 1 μM crizotinib, 72 hours
MGH006 cells = conditions: from crizotinib-naive ALK-positive NSCLC patient
H3122 CR1 cells = experiment: cells; conditions: Homo sapiens, NCI-H3122, 72 h

COc1cc(N2CCC(N3CCN(C)CC3)CC2)ccc1Nc1ncnc(Nc2ccccc2S(=O)(=O)C(C)C)n1 [ASP-3026]
potency in cell survival assay [1]: not as potent as crizotinib and CH5424802 | shift in IC50 compared to wild-type ALK (fold) ([2]; Ba/F3 EML4-ALK G1202R relative to wild-type): fourfold | potency and selectivity against wild-type ALK in vitro [3]: relatively potent and selective

C=CCNC1=C2C[C@@H](C)C[C@H](OC)[C@H](O)[C@@H](C)/C=C(\C)[C@H](OC(N)=O)[C@@H](OC)/C=C\C=C(/C)C(=O)NC(=CC1=O)C2=O [17-AAG, 17-allylamino-17-demethoxygeldanamycin]
potency / resistance in cell survival assay [4]: highly active | potency / resistance in cell survival assay ([2]; Ba/F3 EML4-ALK G1202R, without IL-3): highly active | potency / resistance in cell survival assay [5]: highly active | potency / resistance in cell survival assay [6]: highly active | activity in cell survival assay [7]: at relatively low concentrations | effect on phospho-ALK and total ALK protein levels [8]: decreased both phospho-ALK and total ALK protein levels | sensitivity in cell survival assay (H3122 CR2 cells; H3122 CR2 (1151Tins)): highly susceptible | sensitivity in cell survival assay (H3122 CR3 cells [9]): resistant

Cc1ccc(NC(=O)c2ccc(CN3CCN(C)CC3)cc2)cc1Nc1nccc(-c2cccnc2)n1 [imatinib]
effect on crizotinib-resistant phenotype [10]: completely reversed the resistant phenotype

COc1cc(N2CCC(N3CCN(C)CC3)CC2)ccc1Nc1ncc(Cl)c(Nc2ccccc2S(=O)(=O)C(C)C)n1 [NVP-TAE684]
activity in cell survival assay [7]: less effective

COc1cc2ncnc(Nc3ccc(F)c(Cl)c3)c2cc1OCCCN1CCOCC1 [gefitinib]
sensitivity in cell survival assay (H3122 CR3 cells [9]): resistant | induction of apoptosis (H3122 CR3 cells [11]): failed to induce apoptosis

C[C@@H](Oc1cc(-c2cnn(C3CCNCC3)c2)cnc1N)c1c(Cl)ccc(F)c1Cl [crizotinib]
sensitivity in cell survival assay (H3122 cells [12]): highly sensitive | IC50 (H3122 CR2 cells; Homo sapiens, NCI-H3122, 72 h): > 1000 nM | sensitivity in cell survival assay (H3122 CR3 cells [9]): resistant | IC50 (H3122 CR3 cells [9]; Homo sapiens, NCI-H3122, 72 h): > 1000 nM | induction of apoptosis (H3122 cells [13]): marked apoptosis | sensitivity in cell survival assay (MGH006 cells): sensitive | induction of apoptosis (H3122 CR3 cells [11]): failed to induce apoptosis | IC50 (H3122 CR1 cells): > 1000 nM
